US6551585B1, “Use of tumor necrosis factor as an adjuvant” (Genentech, Inc., priority 1987, dated 2003)
Marks after values point to notes of the source that are not given here.

What was measured:
[1] = system: bovine serum albumin (BSA); assay: Serum antibody (IgG) against BSA by Elisa after BSA immunization; assay type: in vivo, C3H/HeN mice; details: for Production of antibody (IgG) against BSA: BSA 500 μg i.p. day 0 and second injection 100 μg, adjuvant at various doses, bled three days later, Elisa
Experimental: C3H/HeN mice were given an i.p. injection of bovine serum albumin using a suboptimal vaccine dose (500 μg/animal), which was administered by i.p. injection on day 0. Various doses of TNF-α, as an adjuvant, were administered 48 hours following a second injection of BSA at 100 μg/animal. The mice were bled three days later and the serum antibody levels as IgG were determined using routine Elisa techniques. The i.v. injection of maleic divinyl ether with an average molecular weight of 20,000 daltons was used as a positive control.

[2] = system: cytotoxic T cells; assay: Development of cytotoxic T cells in 2237-cell immunized mice; assay type: in vivo
[3] = system: 2237 cells; assay: Direct cytotoxic effect on 2237 cells; assay type: cell-based
Source text: This is not especially relevant in the context of the foregoing experiments because the tumor cells were not injected into the animals until 2 days after they had last been exposed to cytokines.

[4] = system: 2237 tumor cells (syngeneic fibrosarcoma); assay: Immunization with radiation killed 2237 tumor cells plus adjuvant, then footpad challenge with live 2237 cells; tumor volume by calipers; assay type: in vivo, C3H/HeN mice
Source text: C3H/HeN mice were immunized with 1×10^5 radiation killed 2237 tumor cells. The 2237 cell line is a moderately antigenic syngeneic fibrosarcoma obtained from s.c. growing tumors by collagenase dissociation. The donor tumor cells for use in tumor vaccine were irradiated with 10,000 R of gamma irradiation. Irradiation ultimately kills the cells but they are not immediately killed, indeed the cells may be able to undergo one or two additional divisions before a sufficient accumulation of chromosomal breaks or other abnormalities is obtained to result in a lethal event. Thus, irradiation results in a metabolically viable but noncontinuously proliferating cell. The cells were admixed with HBSS alone (serving as a non-adjuvant killed cell control vaccine), or with HBSS containing various doses of homogeneous recombinant Val-terminal human TNF-α alone or TNF-α plus IFN-γ. The mixture was injected intradermally into the posterior ventral region at five sites. Controls also included TNF without tumor cells, injections of HBSS alone (without killed 2237 cells), and FK565, a dimuramyl dipeptide derivative representing a known adjuvant as a positive control. Primary immunization with 2237 cells and TNF-α occurred on day 1; TNF-α was administered intraperitoneally alone on days 2 and 3. Secondary intradermal immunization occurred on day 11 with the same number of killed cells. When IFN-γ was used with TNF-α, IFN-γ administrations accompanied the TNF-α administration and further, IFN-γ, TNF-α or IFN-γ plus TNF-α were administered intraperitoneally on days 12 and 13. Five days after the second immunization the animals' footpads were injected with live 2237 cells. 48, 74 and 81 days later the tumors that had developed were measured by calipers in two dimensions. Numerous control animals had died by the last measurement day. […] Tumor volume was determined using the formula for a prolated sphere using the two dimensions previously measured. The formula is tumor volume (cm^3) equals ½ A×B^2; where A equals the larger tumor diameter and B equals the smaller tumor diameter.

[5] = 0.1 μg per animal with killed 2237 cell vaccine
[6] = 1 μg per animal with killed 2237 cell vaccine
[7] = 5 μg per animal with killed 2237 cell vaccine
[8] = 500 μg per animal with killed 2237 cell vaccine
[9] = 5 × 10^4 units per animal with killed 2237 cell vaccine

Molecule: maleic divinyl ether [MVE-2, reference compound]
- Production of antibody (IgG) against BSA [1]: in a dose-dependent manner augmented

Molecule: TNF-α
- Stimulation of the development of cytotoxic T cells [2]: able to stimulate the development of cytotoxic T cells
- Production of antibody (IgG) against BSA [1]: in a dose-dependent manner augmented
- Serum antibody activity after injection of TNF alone ([1]; control, TNF alone): did not induce serum antibody activity
- Direct cytotoxic effect on 2237 cells [3]: Neither TNF-α nor IFN-γ have any significant direct cytotoxic effect
- Tumor Volume Day 48 [4, 5]: 0 cm^3
- Tumor Volume Day 74 [4, 5]: 0 cm^3
- Tumor Volume Day 81 [4, 5]: 0 cm^3
- Fate of the tumor that had developed in one animal ([4]; 1 μg per animal group, footnote to Day 48 value): *The tumor that had developed in one animal in this group regressed before the end of the study.
- Tumor Volume Day 48 [4, 6]: 0.157* cm^3
- Tumor Volume Day 74 [4, 6]: 0 cm^3
- Tumor Volume Day 81 [4, 6]: 0 cm^3
- Tumor Volume Day 48 [4, 7]: 0 cm^3
- Tumor Volume Day 74 [4, 7]: 0 cm^3
- Tumor Volume Day 81 [4, 7]: 0 cm^3

Molecule: CCCCCCC(=O)N[C@H](CCC(=O)N[C@@H](CCC[C@@H](N)C(=O)O)C(=O)N[C@H](C)C(=O)O)C(=O)O [FK565, reference compound]
- Tumor Volume Day 48 [4, 8]: 0 cm^3
- Tumor Volume Day 74 [4, 8]: 0 cm^3
- Tumor Volume Day 81 [4, 8]: 0 cm^3

Molecule: IFN-γ: IFN-γ (γ-interferon) lymphokine given with or without TNF-α
- Tumor Volume Day 48 [4, 9]: 0 cm^3
- Tumor Volume Day 74 [4, 9]: 0 cm^3
- Tumor Volume Day 81 [4, 9]: 0 cm^3

B1: IFN-γ: IFN-γ (γ-interferon) lymphokine given with or without TNF-α (protein, UniProt P01579 24-161, looked up)
Interferon gamma: QDPYVKEAENLKKYFNAGHSDVADNGTLFLGILKNWKEESDRKIMQSQIVSFYFKLFKNFKDDQSIQKSVETIKEDMNVKFFNSNKKKRDDFEKLTNYSVTDLNVQRKAIHELIQVMAELSPAAKTGKRKRSQMLFRG
- Direct cytotoxic effect on 2237 cells [3]: Neither TNF-α nor IFN-γ have any significant direct cytotoxic effect
